Results on nine compounds are retold here after patent US20120071475A1, “UREA DERIVATIVES HAVING PI3K-INHIBITING ACTIVITY” (SHIONOGI & CO., LTD., priority 2009, published 2012).

Data set [1] deals with T1, PI3Kγ (Homo sapiens, UniProt P48736). Description: PI3Kγ inhibitory activity (PI3-kinase HTRF assay, inhibition ratio). The format is biochemical. The conditions noted are these: 0.5 h, compound at 10 μmol/L; read-out: PI3Kg Inhibition Ratio % (10 μM). A digest of the protocol: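 Compound at 10 μmol/L preincubated 10 min with PI3Kγ and PIP2 substrate, then reacted with ATP for 30 minutes at room temperature; the compound, substrate and ATP figures as printed (40 μmol/L each) are solution concentrations. HTRF 665/620 nm ratio read after 18 hours. Inhibition ratio calculated against no-compound (100%) and no-enzyme (0%) controls.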
T1 sequence (P48736 whole entry, species assumed): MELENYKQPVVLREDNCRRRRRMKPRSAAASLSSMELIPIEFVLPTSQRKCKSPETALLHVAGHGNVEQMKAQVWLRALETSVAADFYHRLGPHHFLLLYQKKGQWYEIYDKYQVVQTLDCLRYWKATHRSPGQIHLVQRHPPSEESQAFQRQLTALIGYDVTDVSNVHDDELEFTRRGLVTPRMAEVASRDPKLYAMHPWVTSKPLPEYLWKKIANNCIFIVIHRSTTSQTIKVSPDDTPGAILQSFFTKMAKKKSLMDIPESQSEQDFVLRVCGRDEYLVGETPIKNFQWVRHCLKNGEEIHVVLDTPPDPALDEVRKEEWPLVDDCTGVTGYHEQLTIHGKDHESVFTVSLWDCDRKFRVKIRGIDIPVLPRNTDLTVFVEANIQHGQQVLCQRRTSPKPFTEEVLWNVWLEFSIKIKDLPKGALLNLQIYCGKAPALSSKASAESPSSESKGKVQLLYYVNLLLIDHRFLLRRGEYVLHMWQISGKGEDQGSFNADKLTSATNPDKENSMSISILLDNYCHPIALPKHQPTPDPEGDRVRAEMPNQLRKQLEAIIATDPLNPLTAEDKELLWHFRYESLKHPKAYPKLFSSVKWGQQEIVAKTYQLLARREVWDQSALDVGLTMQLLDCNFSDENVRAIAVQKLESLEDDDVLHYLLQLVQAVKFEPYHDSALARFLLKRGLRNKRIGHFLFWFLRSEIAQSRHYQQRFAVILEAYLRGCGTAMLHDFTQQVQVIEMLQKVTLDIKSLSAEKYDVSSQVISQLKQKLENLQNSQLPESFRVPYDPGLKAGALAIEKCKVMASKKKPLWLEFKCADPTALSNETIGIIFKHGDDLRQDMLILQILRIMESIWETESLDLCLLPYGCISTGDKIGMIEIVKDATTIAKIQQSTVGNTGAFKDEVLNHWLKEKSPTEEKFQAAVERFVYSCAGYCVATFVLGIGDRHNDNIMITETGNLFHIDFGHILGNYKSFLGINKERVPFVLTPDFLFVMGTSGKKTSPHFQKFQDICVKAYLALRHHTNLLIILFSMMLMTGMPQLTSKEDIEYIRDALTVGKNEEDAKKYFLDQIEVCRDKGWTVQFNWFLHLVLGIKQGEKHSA
Background: TR-FRET usually uses a lanthanide donor and a delayed reading to cut background.

A short description of data set [2]: Solubility test (artificial intestinal juice pH 6.8, 1% DMSO). The format is physicochemical. The settings on record: artificial intestinal juice pH 6.8 with 1% DMSO, fassgf or other biorelevant, kinetic from dmso stock, 25° C. How it is done:
The solubility of a compound was determined under a condition in which 1% DMSO was added. 10 mmol/L compound solution was prepared using DMSO, and then 6 μL of the compound solution was added to 594 μL of artificial intestinal juice in pH 6.8 (to 250 mL of 0.2 mol/L potassium dihydrogen phosphate reagent solution was added 118 mL of 0.2 mol/L NaOH reagent solution and water to provide a final volume of 1000 mL). After standing at 25° C. for 16 hours, the mixed solution was filtered with suction. The filtrate was diluted twice with methanol/water (1/1), and then a concentration in the filtration was measured with HPLC or LC/MS/MS by the absolute calibration method.

Data set [3] can be described thus: Metabolic stability test (pooled human liver microsome). The data set is classed as in vitro ADME. The settings on record: percentage of test compound remained after 30 minutes, pooled human liver microsome 0.5 mg protein/mL, 1 mmol/L NADPH, 37° C.; for hLMS_ox(at 0.5 μM) %: compound 0.5 μM. A digest of the protocol: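 Pooled human liver microsomes (0.5 mg protein/mL) incubated with compound and 1 mmol/L NADPH at 37° C. in pH 7.4 Tris buffer for 0 or 30 min. Parent quantified by LC/MS/MS after methanol/acetonitrile quench; value is % remaining at 30 min versus 0 min.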

For data set [4], the target named is T1, PI3Kγ. Nature of the data set: PI3Kγ inhibitory activity (Ki value). The data set is classed as biochemical. A digest of the protocol:
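Ki derived from IC50 measured at final compound levels of 50–0.05 μmol/L (HTRF read-out; 40 μmol/L ATP, 10 mmol/L MgCl2, 5 mmol/L DTT), IC50 by logistic or two-point linear fit. ATP Km from Lineweaver-Burk over 0.625–80 μmol/L ATP; Ki = IC50/(1+[ATP]/Km).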

The next data set has as its target PI3Kα (Homo sapiens, UniProt P42336). Nature of the data set: PI3Kα inhibitory activity (Ki value). The data set is classed as biochemical. How it is done:
According to Example 2 above, after 80 μg/mL PI-3 kinase γ of the enzyme solution (80 μg/mL PI-3 kinase γ, 10 mmol/L MgCl2, 5 mmol/L DTT) was changed to 0.8 μg/mL PI-3 kinase α, an inhibition ratio was calculated by a method similar to the method for measuring PI3Kγ inhibitory activity, and then defined as the PI3Kα inhibitory activity.
The α inhibitory activity (Ki value) of a compound was evaluated according to the following procedure.
According to Example 4 above, a Km value for PI3Kα was determined to calculate a Ki value.

Another data set deals with PI3Kβ (Homo sapiens, UniProt P42338). Description: PI3Kβ inhibitory activity (Ki value). The data set is classed as biochemical. How it is done:
According to Example 2 above, after 80 μg/mL PI-3 kinase γ of the enzyme solution (80 μg/mL PI-3 kinase γ, 10 mmol/L MgCl2, 5 mmol/L DTT) was changed to 60 μg/mL PI-3 kinase β, a method similar to the method for measuring PI3Kγ inhibitory activity was used to calculate an inhibition ratio, which was defined as the PI3Kβ inhibitory activity.
According to Example 4 above, a Km value for PI3Kβ was determined to calculate a Ki value.

The target in another data set is PI3Kδ (Homo sapiens, UniProt O00329). Description: PI3Kδ inhibitory activity (Ki value). The format is biochemical. As for the experimental part: According to Example 2 above, after 80 μg/mL PI-3 kinase γ of the enzyme solution (80 μg/mL PI-3 kinase γ, 10 mmol/L MgCl2, 5 mmol/L DTT) was changed to 158 μg/mL PI-3 kinase δ, a method similar to the method for measuring PI3Kγ inhibitory activity was used to calculate an inhibition ratio, which was defined as the PI3Kδ inhibitory activity.
PI3Kδ, sequence (O00329 whole entry, species assumed): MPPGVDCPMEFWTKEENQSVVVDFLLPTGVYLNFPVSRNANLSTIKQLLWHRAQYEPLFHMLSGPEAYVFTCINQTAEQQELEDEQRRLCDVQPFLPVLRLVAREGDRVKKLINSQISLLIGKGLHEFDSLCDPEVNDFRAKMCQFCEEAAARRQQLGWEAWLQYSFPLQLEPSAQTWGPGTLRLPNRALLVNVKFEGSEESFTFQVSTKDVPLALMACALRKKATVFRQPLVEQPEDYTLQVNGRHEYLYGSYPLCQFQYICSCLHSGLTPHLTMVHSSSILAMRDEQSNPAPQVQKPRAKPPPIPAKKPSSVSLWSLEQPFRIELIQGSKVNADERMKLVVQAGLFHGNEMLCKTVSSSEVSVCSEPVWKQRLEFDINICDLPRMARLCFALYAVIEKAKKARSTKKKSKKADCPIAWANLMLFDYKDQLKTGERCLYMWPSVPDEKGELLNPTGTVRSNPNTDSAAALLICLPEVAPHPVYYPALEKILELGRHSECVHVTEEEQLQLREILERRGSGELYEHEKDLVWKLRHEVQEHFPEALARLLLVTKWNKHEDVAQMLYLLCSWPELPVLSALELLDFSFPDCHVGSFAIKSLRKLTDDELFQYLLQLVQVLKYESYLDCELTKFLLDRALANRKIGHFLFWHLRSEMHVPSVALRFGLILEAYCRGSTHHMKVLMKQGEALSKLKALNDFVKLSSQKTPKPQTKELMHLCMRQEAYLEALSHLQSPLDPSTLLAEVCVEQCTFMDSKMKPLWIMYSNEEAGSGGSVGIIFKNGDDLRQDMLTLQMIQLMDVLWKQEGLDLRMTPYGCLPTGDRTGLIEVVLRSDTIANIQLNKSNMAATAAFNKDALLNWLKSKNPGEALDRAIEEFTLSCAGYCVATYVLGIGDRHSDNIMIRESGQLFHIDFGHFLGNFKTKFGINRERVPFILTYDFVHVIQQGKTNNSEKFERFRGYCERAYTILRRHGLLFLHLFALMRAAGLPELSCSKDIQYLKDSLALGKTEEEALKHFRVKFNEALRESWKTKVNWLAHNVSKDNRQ
PI3Kδ, sequence (P27986 whole entry partner, species assumed): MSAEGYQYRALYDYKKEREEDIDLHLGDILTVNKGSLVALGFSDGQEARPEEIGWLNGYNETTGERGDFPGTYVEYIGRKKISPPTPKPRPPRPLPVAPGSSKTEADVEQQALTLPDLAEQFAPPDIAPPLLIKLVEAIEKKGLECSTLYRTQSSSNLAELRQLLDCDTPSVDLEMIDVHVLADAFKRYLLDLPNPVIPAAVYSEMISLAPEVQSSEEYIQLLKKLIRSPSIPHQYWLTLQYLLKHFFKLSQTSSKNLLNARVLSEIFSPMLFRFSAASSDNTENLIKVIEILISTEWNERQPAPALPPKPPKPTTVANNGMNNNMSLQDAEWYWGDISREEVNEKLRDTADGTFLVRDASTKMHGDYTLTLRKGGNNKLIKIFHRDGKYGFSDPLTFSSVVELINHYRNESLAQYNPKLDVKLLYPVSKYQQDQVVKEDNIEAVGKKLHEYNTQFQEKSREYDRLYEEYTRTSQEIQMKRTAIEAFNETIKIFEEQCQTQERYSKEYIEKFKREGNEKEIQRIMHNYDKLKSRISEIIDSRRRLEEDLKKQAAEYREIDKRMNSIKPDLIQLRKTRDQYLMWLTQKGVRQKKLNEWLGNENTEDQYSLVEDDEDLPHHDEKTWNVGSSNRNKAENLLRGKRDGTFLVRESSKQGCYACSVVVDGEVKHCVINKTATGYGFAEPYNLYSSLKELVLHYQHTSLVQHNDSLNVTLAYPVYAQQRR
According to Example 4 above, a Km value for PI3Kδ was determined to calculate a Ki value.

For the next data set, the target named is T2, CYP3A4 (Homo sapiens, UniProt P08684).
T2 construct: host or cells: E. coli
Description: CYP3A4 fluorescence MBI test. The format is in vitro ADME. The settings on record: difference in IC50 with 0 or 30 minutes pre-reaction; CYP3A4 expressed in E. coli, substrate 7-BFC. The gist of the method:
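E. coli-expressed CYP3A4 debenzylating 5.6 μmol/L 7-BFC to fluorescent 7-HFC (Ex 420/Em 535 nm) in K-Pi pH 7.4 at 25° C, 15 min reaction. NADPH pre-incubation of 0 or 30 min, with 10-fold dilution before reaction. IC50 from 0.625–20 μmol/L (6 points); (+) for an IC50 shift ≥5 μmol/L, (−) for ≤3 μmol/L.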

The target of a further data set is T3, hERG channel (IKr) (Homo sapiens, UniProt Q12809).
T3 construct: expressed in transfected cells; host or cells: HEK293
Nature of the data set: hERG test (whole-cell patch-clamp, IKr in HEK293 cells). The data set is classed as cell-based. The conditions noted are these: human, HEK293 cells expressing hERG channel, pH 7.4, inhibition of maximum tail current (IKr), compound 1 μM. The gist of the method: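 hERG-expressing HEK293 cells, automated whole-cell patch clamp: hold −80 mV, +50 mV for 2 s, then −50 mV for 2 s to record IKr tail current. Compound in extracellular solution (pH 7.4) for 10 min at room temperature; inhibition of maximum tail current calculated versus pre-application and compared with 0.1% DMSO vehicle.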
A general note: hERG is a cardiac potassium channel; its block is linked to QT prolongation.

Where [5] appears, read: class symbols, read-out: PI3K γ Ki.
[6] abbreviates: class symbols, read-out: PI3K α Ki.
[7] abbreviates: class symbols, read-out: PI3K β Ki.
[8] abbreviates: class symbols, read-out: PI3K δ Ki.

SMILES strings stand for the structures. ≈ marks a conversion by molar mass, not a printed value. Like-named read-outs stand apart in the source and are kept apart here. A value given as a limit tells only on which side of the number the result lay.

PI3Kβ, sequence (P42338 whole entry, species assumed): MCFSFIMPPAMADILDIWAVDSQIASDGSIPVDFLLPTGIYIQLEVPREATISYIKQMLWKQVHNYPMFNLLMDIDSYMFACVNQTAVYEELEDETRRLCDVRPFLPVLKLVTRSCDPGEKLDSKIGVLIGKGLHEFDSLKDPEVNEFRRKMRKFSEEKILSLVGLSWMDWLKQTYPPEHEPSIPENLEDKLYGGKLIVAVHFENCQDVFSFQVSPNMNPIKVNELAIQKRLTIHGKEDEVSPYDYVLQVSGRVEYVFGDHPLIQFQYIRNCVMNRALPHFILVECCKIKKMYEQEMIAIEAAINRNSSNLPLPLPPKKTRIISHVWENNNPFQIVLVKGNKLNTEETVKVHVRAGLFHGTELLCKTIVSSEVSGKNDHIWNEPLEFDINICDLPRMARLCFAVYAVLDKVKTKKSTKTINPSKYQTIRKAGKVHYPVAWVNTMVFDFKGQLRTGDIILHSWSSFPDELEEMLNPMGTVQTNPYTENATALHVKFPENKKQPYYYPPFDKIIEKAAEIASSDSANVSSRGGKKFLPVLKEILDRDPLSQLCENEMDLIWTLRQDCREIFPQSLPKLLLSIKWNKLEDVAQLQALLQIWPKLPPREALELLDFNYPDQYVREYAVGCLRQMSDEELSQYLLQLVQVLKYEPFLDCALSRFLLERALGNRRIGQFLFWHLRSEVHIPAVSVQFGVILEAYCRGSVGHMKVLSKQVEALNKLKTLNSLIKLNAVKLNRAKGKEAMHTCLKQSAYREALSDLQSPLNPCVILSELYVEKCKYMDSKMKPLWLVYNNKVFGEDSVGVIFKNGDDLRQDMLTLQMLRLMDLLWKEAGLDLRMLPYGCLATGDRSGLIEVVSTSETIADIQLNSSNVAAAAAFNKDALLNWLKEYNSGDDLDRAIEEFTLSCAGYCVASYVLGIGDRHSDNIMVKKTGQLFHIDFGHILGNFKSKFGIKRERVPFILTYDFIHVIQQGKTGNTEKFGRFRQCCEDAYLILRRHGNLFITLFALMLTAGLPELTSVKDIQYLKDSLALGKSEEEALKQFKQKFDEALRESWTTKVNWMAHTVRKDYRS
PI3Kβ, sequence (P27986 whole entry partner, species assumed): as the sequence (P27986 whole entry partner, species assumed) above
PI3Kα, sequence (P42336 whole entry, species assumed): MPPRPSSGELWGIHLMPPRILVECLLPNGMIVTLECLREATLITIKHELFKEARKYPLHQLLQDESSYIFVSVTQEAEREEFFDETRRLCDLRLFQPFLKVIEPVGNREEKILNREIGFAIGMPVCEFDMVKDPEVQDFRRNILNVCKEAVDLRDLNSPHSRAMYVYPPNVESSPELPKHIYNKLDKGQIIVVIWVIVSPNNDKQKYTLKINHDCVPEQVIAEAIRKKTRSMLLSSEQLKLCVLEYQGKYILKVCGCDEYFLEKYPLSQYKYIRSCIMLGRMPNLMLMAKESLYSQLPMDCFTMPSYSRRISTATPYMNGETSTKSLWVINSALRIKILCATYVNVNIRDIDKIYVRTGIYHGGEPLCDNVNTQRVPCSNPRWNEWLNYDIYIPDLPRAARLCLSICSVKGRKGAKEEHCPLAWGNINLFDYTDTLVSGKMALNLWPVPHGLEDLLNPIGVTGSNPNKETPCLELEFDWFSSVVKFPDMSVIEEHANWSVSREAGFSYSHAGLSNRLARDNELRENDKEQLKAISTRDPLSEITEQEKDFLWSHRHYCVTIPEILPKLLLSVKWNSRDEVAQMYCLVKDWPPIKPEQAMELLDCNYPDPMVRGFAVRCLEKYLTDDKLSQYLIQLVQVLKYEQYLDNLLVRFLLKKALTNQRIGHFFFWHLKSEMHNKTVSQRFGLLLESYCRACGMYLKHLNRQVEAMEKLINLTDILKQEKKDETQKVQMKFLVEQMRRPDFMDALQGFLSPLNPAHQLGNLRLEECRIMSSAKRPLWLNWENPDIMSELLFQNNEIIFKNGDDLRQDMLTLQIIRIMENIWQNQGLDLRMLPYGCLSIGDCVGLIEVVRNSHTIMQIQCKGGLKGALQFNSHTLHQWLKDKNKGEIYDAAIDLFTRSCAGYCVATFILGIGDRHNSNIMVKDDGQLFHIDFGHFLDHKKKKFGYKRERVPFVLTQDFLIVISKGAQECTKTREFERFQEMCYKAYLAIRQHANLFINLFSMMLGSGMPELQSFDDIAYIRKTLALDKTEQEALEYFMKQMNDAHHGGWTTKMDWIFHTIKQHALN
PI3Kα, sequence (P27986 whole entry partner, species assumed): as the sequence (P27986 whole entry partner, species assumed) above

Usually solubility stands for the concentration that dissolves in the medium under given conditions. A lower solubility goes with a poorly soluble substance. As to `COc1cc(N2CCc3nc(NC(=O)Nc4ccsc4C(=O)O)sc3C2)nc(OC)n1` [Compound I-4], the inhibition at 10 µM at PI3Kγ [1] was found to be 72%. The solubility at 16 h in data set [2] was found to be 12.3 µM (≈ 5.69 µg/mL). For the same compound, the “hLMS_ox(at 2 μM) %” value in [3] (compound 2 μM) was 103%.
Consider `COc1cc(N2CCc3nc(NC(=O)Nc4ccccc4C(=O)N(C)C(C)C)sc3C2)nc(OC)n1` [Compound I-13], for which, at PI3Kγ [1], the inhibition at 10 µM was at least 95%. The compound further registered a solubility at 16 h in data set [2] of 15.4 µM (≈ 7.88 µg/mL).
In general, Ki refers to a measure of affinity in units of concentration, obtained from inhibition or displacement. On to `COc1cc(N2CCc3nc(NC(=O)Nc4ccccc4C4=NC(C)(C)CO4)sc3C2)nc(OC)n1` [Compound I-14], for which the inhibition at 10 µM on PI3Kγ [1] came out at 94%. For the same compound, the Ki is at most 0.3 µM at PI3Kγ [4] (setting [5]); 0.054 µM at PI3Kγ [4] (read-out: PI3Kγ Ki value); over 3 µM on PI3Kα (setting [6]); over 3 µM on PI3Kβ (setting [7]); over 3 µM at PI3Kδ (setting [8]). Further, the MBI entry on CYP3A4 is reported as “(−) (When 3 μmol/L or less, the compound is shown as (−))”.
`COc1cc(N2CCc3nc(NC(=O)NC4=C(C(=O)NC(C)(C)C)CCC4)sc3C2)nc(OC)n1` [Compound I-28]: at PI3Kγ [1], the inhibition at 10 µM was at least 95%. Besides, the Ki at PI3Kγ [4] (setting [5]) was at most 0.3 µM; at PI3Kγ [4] (read-out: PI3Kγ Ki value) it was 0.047 µM; on PI3Kα (setting [6]), over 3 µM; at PI3Kβ (setting [7]), at most 3 µM; on PI3Kδ (setting [8]) it was at most 3 µM.
In [2], `COc1cc(N2CCc3nc(NC(=O)Nc4ccccc4OCCN(C)C)sc3C2)nc(OC)n1` [Compound I-76] came in with a solubility at 16 h of 26.3 µM (≈ 13.1 µg/mL).
On to `COc1cc(C2(F)CCc3nc(NC(=O)Nc4ccccc4C(=O)NC(C)C)sc3C2)nc(OC)n1` (centres unmarked) [Compound I-83], for which the inhibition at 10 µM on PI3Kγ [1] is at least 95%. The Ki on PI3Kγ [4] (setting [5]) is at most 0.3 µM; on PI3Kγ [4] (read-out: PI3Kγ Ki value) it was 0.11 µM; at PI3Kα (setting [6]), over 3 µM; on PI3Kα (read-out: PI3Kα Ki value), over 13 µM; at PI3Kβ (setting [7]), over 3 µM; on PI3Kβ (read-out: PI3Kβ Ki value) it was over 12 µM. The Ki was over 3 µM at PI3Kδ (setting [8]) and over 12 µM at PI3Kδ (read-out: PI3Kδ Ki value). The “hLMS_ox(at 0.5 μM) %” value in data set [3] is given as 89.1%. On hERG channel (IKr), the inhibition at 10 min, 1 µM was found to be 3.3%.
As to `COc1cc(N2CCc3nc(NC(=O)Nc4ccccc4OCCC(C)(C)C(=O)O)sc3C2)nc(OC)n1` [Compound I-100], on PI3Kγ [1], the inhibition at 10 µM is at least 95%. In data set [2], this compound yielded a solubility at 16 h of 34.4 µM (≈ 18.7 µg/mL). In addition, in data set [3], the “hLMS_ox(at 0.5 μM) %” value is recorded as 89.3%.
Regarding `COc1cc(N2CCc3nc(NC(=O)Nc4ccccc4C(=O)NC(C)CO)sc3C2)cnc1OC` (centres unmarked) [Compound I-104], the concentration in solution in data set [2] (solubility at 16 h) came to 39.6 µM (≈ 20.3 µg/mL). Moreover, the “hLMS_ox(at 0.5 μM) %” value in [3] turned out to be 103%.
With `CC(CO)NC(=O)c1ccccc1NC(=O)Nc1nc2c(s1)CN(c1ccc(F)cn1)CC2` (centres unmarked) [Compound I-120], the inhibition at 10 µM at PI3Kγ [1] is at least 95%. In addition, the solubility at 16 h in [2] is 17.5 µM (≈ 8.23 µg/mL). In data set [3], the “hLMS_ox(at 0.5 μM) %” value came out at 92.3%.
